Assay results: ChEMBL document CHEMBL1139671, “Nuphar alkaloids with immediately apoptosis-inducing activity from Nuphar pumilum and their structural requirements for the activity” (2006)

What was measured:
Format in all cases: functional
B16-F10 [1] = assay: Cytotoxicity against B16F10 cells at 0.1 uM after 48 hrs; conditions: Mus musculus, B16-F10, 48 h
U-937 [2] = assay: Cytotoxicity against U937 cells at 1.0 uM after 72 hrs; conditions: Homo sapiens, U-937, 72 h
U-937 [3] = assay: Cytotoxicity against U937 cells at 0.1 uM after 24 hrs; conditions: Homo sapiens, U-937, 24 h
U-937 [4] = assay: Cytotoxicity against U937 cells at 10 uM after 48 hrs; conditions: Homo sapiens, U-937, 48 h
B16-F10 [5] = assay: Cytotoxicity against B16F10 cells at 10 uM after 48 hrs; conditions: Mus musculus, B16-F10, 48 h
U-937 [6] = assay: Cytotoxicity against U937 cells at 0.1 uM after 72 hrs; conditions: Homo sapiens, U-937, 72 h
B16-F10 [7] = assay: Cytotoxicity against B16F10 cells at 1.0 uM after 72 hrs; conditions: Mus musculus, B16-F10, 72 h
HT-1080 [8] = assay: Cytotoxicity against HT1080 cells at 10 uM after 72 hrs; conditions: Homo sapiens, HT-1080, 72 h
HT-1080 [9] = assay: Cytotoxicity against HT1080 cells at 1.0 uM after 24 hrs; conditions: Homo sapiens, HT-1080, 24 h
B16-F10 [10] = assay: Cytotoxicity against B16F10 cells at 0.1 uM after 72 hrs; conditions: Mus musculus, B16-F10, 72 h
B16-F10 [11] = assay: Cytotoxicity against B16F10 cells at 1.0 uM after 48 hrs; conditions: Mus musculus, B16-F10, 48 h
HT-1080 [12] = assay: Cytotoxicity against HT1080 cells at 0.03 uM after 72 hrs; conditions: Homo sapiens, HT-1080, 72 h
U-937 [13] = assay: Cytotoxicity against U937 cells at 0.03 uM after 72 hrs; conditions: Homo sapiens, U-937, 72 h
HT-1080 [14] = assay: Cytotoxicity against HT1080 cells at 0.1 uM after 72 hrs; conditions: Homo sapiens, HT-1080, 72 h
B16-F10 [15] = assay: Cytotoxicity against B16F10 cells at 0.03 uM after 72 hrs; conditions: Mus musculus, B16-F10, 72 h
B16-F10 [16] = assay: Cytotoxicity against B16F10 cells at 0.1 uM after 24 hrs; conditions: Mus musculus, B16-F10, 24 h
HT-1080 [17] = assay: Cytotoxicity against HT1080 cells at 0.03 uM after 48 hrs; conditions: Homo sapiens, HT-1080, 48 h
U-937 [18] = assay: Cytotoxicity against U937 cells at 10 uM after 24 hrs; conditions: Homo sapiens, U-937, 24 h
U-937 [19] = assay: Cytotoxicity against U937 cells at 0.03 uM after 24 hrs; conditions: Homo sapiens, U-937, 24 h
U-937 [20] = assay: Cytotoxicity against U937 cells at 0.03 uM after 48 hrs; conditions: Homo sapiens, U-937, 48 h
B16-F10 [21] = assay: Cytotoxicity against B16F10 cells at 10 uM after 72 hrs; conditions: Mus musculus, B16-F10, 72 h
U-937 [22] = assay: Cytotoxicity against U937 cells at 1.0 uM after 24 hrs; conditions: Homo sapiens, U-937, 24 h
HT-1080 [23] = assay: Cytotoxicity against HT1080 cells at 10 uM after 48 hrs; conditions: Homo sapiens, HT-1080, 48 h
HT-1080 [24] = assay: Cytotoxicity against HT1080 cells at 1.0 uM after 48 hrs; conditions: Homo sapiens, HT-1080, 48 h
HT-1080 [25] = assay: Cytotoxicity against HT1080 cells at 10 uM after 24 hrs; conditions: Homo sapiens, HT-1080, 24 h
HT-1080 [26] = assay: Cytotoxicity against HT1080 cells at 0.1 uM after 24 hrs; conditions: Homo sapiens, HT-1080, 24 h
U-937 [27] = assay: Cytotoxicity against U937 cells at 1.0 uM after 48 hrs; conditions: Homo sapiens, U-937, 48 h
B16-F10 [28] = assay: Cytotoxicity against B16F10 cells at 0.03 uM after 24 hrs; conditions: Mus musculus, B16-F10, 24 h
B16-F10 [29] = assay: Cytotoxicity against B16F10 cells at 1.0 uM after 24 hrs; conditions: Mus musculus, B16-F10, 24 h
U-937 [30] = assay: Cytotoxicity against U937 cells at 10 uM after 72 hrs; conditions: Homo sapiens, U-937, 72 h
HT-1080 [31] = assay: Cytotoxicity against HT1080 cells at 0.1 uM after 48 hrs; conditions: Homo sapiens, HT-1080, 48 h
U-937 [32] = assay: Cytotoxicity against U937 cells at 0.1 uM after 48 hrs; conditions: Homo sapiens, U-937, 48 h
HT-1080 [33] = assay: Cytotoxicity against HT1080 cells at 0.03 uM after 24 hrs; conditions: Homo sapiens, HT-1080, 24 h
B16-F10 [34] = assay: Cytotoxicity against B16F10 cells at 0.03 uM after 48 hrs; conditions: Mus musculus, B16-F10, 48 h
HT-1080 [35] = assay: Cytotoxicity against HT1080 cells at 1.0 uM after 72 hrs; conditions: Homo sapiens, HT-1080, 72 h
B16-F10 [36] = assay: Cytotoxicity against B16F10 cells at 10 uM after 24 hrs; conditions: Mus musculus, B16-F10, 24 h

In the case of `CC[C@@]1(O)C(=O)OCc2c1cc1n(c2=O)Cc2cc3ccccc3nc2-1` [CAMPTOTHECIN], the inhibition at 0.1 µM (B16-F10 [1]) is reported as 39.1%, the inhibition at 1 µM (U-937 [2]) is reported as 98.2% and the inhibition at 0.1 µM (U-937 [3]) is reported as 46%. The inhibition at 10 µM (U-937 [4]) was 98.2%, the inhibition at 10 µM (B16-F10 [5]) was 94.7% and the inhibition at 0.1 µM (U-937 [6]) was 95.3%. The inhibition at 1 µM (B16-F10 [7]) was 93.5%, the inhibition at 10 µM (HT-1080 [8]) was 93.8% and the inhibition at 1 µM (HT-1080 [9]) was 49.5%. It also gave an inhibition at 0.1 µM (B16-F10 [10]) of 76.9%, an inhibition at 1 µM (B16-F10 [11]) of 83.2% and an inhibition at 0.03 µM (HT-1080 [12]) of -3.2%. For the same molecule, the inhibition at 0.03 µM (U-937 [13]) was 78.5%, the inhibition at 0.1 µM (HT-1080 [14]) was 5.4% and the inhibition at 0.03 µM (B16-F10 [15]) was 33.4%. The inhibition at 0.1 µM (B16-F10 [16]) was 16.2%, the inhibition at 0.03 µM (HT-1080 [17]) was -7.1% and the inhibition at 10 µM (U-937 [18]) was 75%. For the same molecule, the inhibition at 0.03 µM (U-937 [19]) was 7.1%, the inhibition at 0.03 µM (U-937 [20]) was 61.9% and the inhibition at 10 µM (B16-F10 [21]) was 98.1%. For the same molecule, the inhibition at 1 µM (U-937 [22]) was 75.8%, the inhibition at 10 µM (HT-1080 [23]) was 93.1% and the inhibition at 1 µM (HT-1080 [24]) was 77%. For the same molecule, the inhibition at 10 µM (HT-1080 [25]) was 62%, the inhibition at 0.1 µM (HT-1080 [26]) was -0.4% and the inhibition at 1 µM (U-937 [27]) was 94.6%. It also gave an inhibition at 0.03 µM (B16-F10 [28]) of -1.9%, an inhibition at 1 µM (B16-F10 [29]) of 47.8% and an inhibition at 10 µM (U-937 [30]) of 98%. It also gave an inhibition at 0.1 µM (HT-1080 [31]) of -11.7%, an inhibition at 0.1 µM (U-937 [32]) of 90.6% and an inhibition at 0.03 µM (HT-1080 [33]) of -3.8%. It also gave an inhibition at 0.03 µM (B16-F10 [34]) of 7.5%, an inhibition at 1 µM (HT-1080 [35]) of 65.8% and an inhibition at 10 µM (B16-F10 [36]) of 60.6%.

In the case of `COc1cc([C@H]2Oc3c(OC)cc(CCCO)cc3[C@@H]2CO)ccc1O` [DIHYDRODEHYDRODICONIFERY ALCOHOL], the inhibition at 1 µM (U-937 [2]) is reported as 9.3%, the inhibition at 1 µM (B16-F10 [7]) is reported as -5.3% and the inhibition at 10 µM (HT-1080 [8]) is reported as 11.9%. For the same molecule, the inhibition at 0.1 µM (B16-F10 [10]) was -2.4%, the inhibition at 0.1 µM (HT-1080 [14]) was 8.9% and the inhibition at 10 µM (B16-F10 [21]) was -6.5%. It also gave an inhibition at 10 µM (U-937 [30]) of 13.4% and an inhibition at 1 µM (HT-1080 [35]) of 5.2%.

For `C[C@@H]1CC[C@@H](c2ccoc2)N2C[C@]3(CC[C@@H]12)CS[C@]1(CC[C@H]2[C@H](C)CC[C@@H](c4ccoc4)N2C1)C3` [NEOTHIOBINUPHARIDINE], the inhibition at 0.1 µM (B16-F10 [1]) was 4.4%, the inhibition at 1 µM (U-937 [2]) was -1.2% and the inhibition at 10 µM (U-937 [4]) was 65.6%. It also gave an inhibition at 10 µM (B16-F10 [5]) of 24.7%, an inhibition at 1 µM (B16-F10 [7]) of 4% and an inhibition at 10 µM (HT-1080 [8]) of 38%. It also gave an inhibition at 0.1 µM (B16-F10 [10]) of 8.9%, an inhibition at 1 µM (B16-F10 [11]) of -8.9% and an inhibition at 0.1 µM (HT-1080 [14]) of -3.4%. It also gave an inhibition at 10 µM (U-937 [18]) of 50.7%, an inhibition at 10 µM (B16-F10 [21]) of 30.2% and an inhibition at 1 µM (U-937 [22]) of 5.2%. For the same molecule, the inhibition at 10 µM (HT-1080 [23]) was 7.5%, the inhibition at 1 µM (HT-1080 [24]) was -4.1% and the inhibition at 1 µM (U-937 [27]) was 5.4%. For the same molecule, the inhibition at 10 µM (U-937 [30]) was 40.1%, the inhibition at 0.1 µM (HT-1080 [31]) was -1% and the inhibition at 1 µM (HT-1080 [35]) was -0.8%.

Work on `C[C@H]1CC[C@H]2[C@H](C)CC[C@@H](c3ccoc3)[N+]2([O-])C1` (some centres undefined) [NUPHARIDINE] yielded an inhibition at 1 µM (U-937 [2]) of 8%, an inhibition at 1 µM (B16-F10 [7]) of 5.3% and an inhibition at 10 µM (HT-1080 [8]) of -9%. For the same molecule, the inhibition at 0.1 µM (B16-F10 [10]) was 0.6%, the inhibition at 0.1 µM (HT-1080 [14]) was -3.3% and the inhibition at 10 µM (B16-F10 [21]) was 4.1%. The inhibition at 10 µM (U-937 [30]) was 11.5% and the inhibition at 1 µM (HT-1080 [35]) was -9%.

With `C[C@@H]1CC[C@@H](c2ccoc2)N2C[C@](C)(O)CC[C@@H]12` [NUPHAROLUTINE] the inhibition at 1 µM (U-937 [2]) was 12.5%, the inhibition at 1 µM (B16-F10 [7]) was -1.2% and the inhibition at 10 µM (HT-1080 [8]) was -16.7%. It also gave an inhibition at 0.1 µM (B16-F10 [10]) of -3.1%, an inhibition at 0.1 µM (HT-1080 [14]) of -12.9% and an inhibition at 10 µM (B16-F10 [21]) of -0.9%. For the same molecule, the inhibition at 10 µM (U-937 [30]) was 2.8% and the inhibition at 1 µM (HT-1080 [35]) was -13.2%.

Molecule `C[C@@H]1CC[C@@H](c2ccoc2)N2C[C@@]3(CC[C@@H]12)CS[C@@]1(CC[C@H]2[C@H](C)CC[C@@H](c4ccoc4)N2C1)C3` [THIOBINUPHARIDINE] has an inhibition at 1 µM (U-937 [2]) of 6.9%, an inhibition at 1 µM (B16-F10 [7]) of 7.9% and an inhibition at 10 µM (HT-1080 [8]) of -11.7%. For the same molecule, the inhibition at 0.1 µM (B16-F10 [10]) was 6.8%, the inhibition at 0.1 µM (HT-1080 [14]) was 9.9% and the inhibition at 10 µM (B16-F10 [21]) was 4.4%. For the same molecule, the inhibition at 10 µM (U-937 [30]) was 10.9% and the inhibition at 1 µM (HT-1080 [35]) was 6.3%.

`C[C@@H]1CC[C@@H](c2ccoc2)N2C[C@@]3(CC[C@@H]12)CS[C@]1(CC[C@H]2[C@H](C)CC[C@@H](c4ccoc4)N2C1)C3` [THIONUPHLUTINE B] showed an inhibition at 1 µM (U-937 [2]) of 9.1%, an inhibition at 1 µM (B16-F10 [7]) of -2.2% and an inhibition at 10 µM (HT-1080 [8]) of -12%. The inhibition at 0.1 µM (B16-F10 [10]) was 1.7%, the inhibition at 0.1 µM (HT-1080 [14]) was -10.8% and the inhibition at 10 µM (B16-F10 [21]) was 2.2%. The inhibition at 10 µM (U-937 [30]) was 7.8% and the inhibition at 1 µM (HT-1080 [35]) was 0.9%.
